Laboratory results taken from article PMC6278385, “Preclinical Pharmacokinetics of C118P, a Novel Prodrug of Microtubules Inhibitor and Its Metabolite C118 in Mice, Rats, and Dogs” (Molecules, 2018).
Read-outs that look alike come from different tables or passages of the source.

What was measured:
[1] = PK in dogs after i.v. C118P; type: in vivo, beagle dogs; settings: dogs, plasma, n = 6; for AUC(0-inf) / half-life / clearance / concentration at 2 min: both sexes, beagle, dog, in vivo; for AUC(0-inf) / half-life / clearance: iv; for clearance: read-out: CL (converted); for concentration at 2 min: read-out: C2min
Experimental: The beagle dogs were purchased from Nanjing Ya Dong experimental animal research center. Twelve beagle dogs with half males and half females were divided randomly into two groups. C118P was dissolved in saline to different concentrations for intravenous administration. After fasting overnight with free access to water, the dogs were administered a single intravenous dose of 1 or 3 mg/kg C118P. After a one-week wash-out period, the group of 1 mg/kg were administered another single intravenous dose of 6 mg/kg C118P. Blood samples (approximately 1 mL) were collected in EDTA-coated tubes at times of 0, 2, 5, 10, 20, 40 min, 1, 2, 4, 8, 12 and 24 h. Plasma was prepared by centrifugation at 8000 rpm for 5 min, and the plasma samples were then prepared and determined by the method described above.
(§1) The area under the plasma-concentration-versus-time curve from 0 to infinite (AUC0-inf), the elimination half-life (t1/2), the systemic plasma clearance (CL) and the volume of distribution (V) were calculated by non-compartmental analysis with WinNonlin software v6.3 (Pharsight Corporation, St. Louis, MO 63144, USA) from the plasma concentration data of C118P and C118, respectively. The instantaneous concentrations after intravenous to rats (C30s) or dogs (C2min) were obtained directly from the observed data.

[2] = PK in rats after i.v. C118P; type: in vivo, SD rats; settings: rats, plasma, n = 6; for AUC(0-inf) / half-life / clearance / concentration at 30 s: both sexes, rat, in vivo; for AUC(0-inf) / half-life / clearance: iv; for clearance: read-out: CL (converted); for concentration at 30 s: read-out: C2min (C30s for Rat)
Experimental: The SD rats were supplied by the medical animal experiment center of Chinese People’s Liberation Army Nanjing military region. Twenty-four rats (210–300 g) with half males and half females were divided randomly into four groups. C118P was dissolved in saline to achieve different concentrations for intravenous administration. After fasting overnight, the rats were administered with a single intravenous dose of 5, 10, 20, or 50 mg/kg C118P. Blood samples (approximately 200 μL) were collected in EDTA-coated tubes pre-dose (0), and 30s, 2, 5, 10, 20, 40 min, 1, 2, 4, 8, 12 and 24 h post dose. Plasma was prepared by centrifugation at 8000 rpm for 5 min, and the plasma samples were then prepared and determined by the method described above.
as §1

[3] = Plasma protein binding by ultrafiltration; type: in vitro ADME, beagle dogs; settings: beagle, dog plasma, read-out: fu (fraction unbound)
Experimental: (§2) Both C118P and C118 were stable in the plasma with EDTA as anticoagulant. The non-specific binding to the ultrafilter membrane was negligible. The extent of plasma protein binding was reported as a fraction unbound (fu, %) value which was calculated using the formula fu = PF/TC × 100%, where TC is test compound (C118P or C118) concentration in sample before ultrafiltration, and PF is the test compound concentration in the ultrafiltrate (Table 1).
(§3) Plasma protein binding of C118P and C118 were determined by ultrafiltration at four concentrations (C118P: 400, 4000, 40,000, and 400,000 ng/mL, C118: 20, 200, 2000, and 20,000 ng/mL) in pooled plasma from Sprague-Dawley rats, beagle dogs, and humans. Stock solutions of C118P and C118 dissolved in methanol were diluted with blank plasma to achieve the test concentrations (the methanol volume is less than 10% of the plasma). The plasma was incubated for 1 h in a water bath at 37 °C. The total concentration of C118P and C118 of spiked plasma (TC) was analyzed by previously described methods. Ultrafiltration was performed with activated high speed centrifugal tubes (Millipore, Burlington, MA, USA). Plasma samples (0.4 mL) were added to the upper layer of the high speed centrifugal tubes, and then centrifuged at 12,000 g for 10 min. The concentration of unbound C118P and C118 in filtrate (PF) was similarly determined by the previously described methods. The percentage of free fraction (fu) of C118P and C118 was calculated as follows: fu = (PF/TC) × 100%.

[4] = Plasma protein binding by ultrafiltration; type: in vitro ADME; settings: human plasma, read-out: fu (fraction unbound)
Experimental: as §2, §3

[5] = Metabolic stability in liver microsomes; type: in vitro ADME, monkey; settings: monkey liver microsomes (Figure S1)
Experimental: The in vitro metabolic stability of C118P and C118 were estimated in mice, rat, dog, monkey, and human liver microsomes (Research Institute for Liver Diseases Co. Ltd (Shanghai, China)). The incubation mixture contains C118P or C118, NADP (1.0 mM), G-6-P (10 mM), PDH (2 units/mL), MgCl2 (10 mM), and liver microsomes (mice, rats, dogs, monkeys, or humans, 1.0 mg protein/mL) in phosphate buffer. A total of 200 μL of the mixture was removed and quenched with 600 μL acetonitrile in an ice bath at 0, 15, 30, 60, 120, and 240 min after the addition of NADPH.
CLint, in vitro (the in vitro intrinsic clearance, Equation (1)) was calculated from the t1/2 of C118 disappearance, where Cprotein is the protein concentration during the incubation, and t1/2 was determined by the slope (k) of the log-linear regression analysis of the concentration versus time profiles; thus, t1/2 = ln2/k. […] The in vivo hepatic clearance (CLH, Equation (3)) was then calculated by using CLint and hepatic blood flow, Q ([…] mL·min^−1·kg^−1 in rats, dogs, monkey, and humans, respectively), in the well-stirred liver model disregarding all binding. The hepatic extraction ratio was calculated as CLH divided by Q. CLint, in vitro = (0.693/t1/2) × (1/Cprotein)(1) CLint = CLint, in vitro × (mg protein/g liver weight) × (gliver weight/kg body weight)(2) CLH = (Q × CLint)/(Q + CLint)(3)

[6] = Sprague-Dawley, i.v. C118P 10 mg/kg

With `COc1cc(OC)cc(-c2nc[nH]c2-c2ccc(OC)c(OP(=O)([O-])[O-])c2)c1.[Na+].[Na+]` [C118P] the AUC(0-inf) ([1]; i.v. C118P 1 mg/kg) was 1700 ± 346 ng·h/mL, the half-life ([1]; i.v. C118P 1 mg/kg) was 13.2 ± 5.4 min and the clearance ([1]; i.v. C118P 1 mg/kg) was 10.2 mL/min/kg. It also gave an AUC(0-inf) ([1]; i.v. C118P 3 mg/kg) of 5300 ± 1700 ng·h/mL, a half-life ([1]; i.v. C118P 3 mg/kg) of 35.4 ± 9.6 min and a clearance ([1]; i.v. C118P 3 mg/kg) of 10.1 mL/min/kg. The AUC(0-inf) ([1]; i.v. C118P 6 mg/kg) was 8530 ± 1550 ng·h/mL, the half-life ([1]; i.v. C118P 6 mg/kg) was 23.4 ± 7.2 min and the clearance ([1]; i.v. C118P 6 mg/kg) was 12.1 mL/min/kg. The concentration at 2 min ([1]; i.v. C118P 1 mg/kg) was 12.3 µg/mL, the concentration at 2 min ([1]; i.v. C118P 3 mg/kg) was 34.7 µg/mL and the concentration at 2 min ([1]; i.v. C118P 6 mg/kg) was 64.2 µg/mL. The V ([1]; i.v. C118P 1 mg/kg) was 0.1817 ± 0.0513 L/kg, the V ([1]; i.v. C118P 3 mg/kg) was 0.5092 ± 0.162 L/kg and the V ([1]; i.v. C118P 6 mg/kg) was 0.3985 ± 0.0871 L/kg. For the same molecule, the AUC(0-inf) ([2]; SD, i.v. C118P 5 mg/kg) was 5740 ± 766 ng·h/mL, the half-life ([2]; SD, i.v. C118P 5 mg/kg) was 14.4 ± 3 min and the clearance ([2]; SD, i.v. C118P 5 mg/kg) was 14.7 mL/min/kg. The clearance ([2]; SD, i.v. C118P 10 mg/kg) was 16.4 mL/min/kg, the AUC(0-inf) ([2]; SD, i.v. C118P 20 mg/kg) was 18700 ng·h/mL and the half-life ([2]; SD, i.v. C118P 20 mg/kg) was 22.8 ± 6 min. The clearance ([2]; SD, i.v. C118P 20 mg/kg) was 18.5 mL/min/kg, the AUC(0-inf) ([2]; SD, i.v. C118P 50 mg/kg) was 38900 ng·h/mL and the half-life ([2]; SD, i.v. C118P 50 mg/kg) was 48 ± 34.2 min. It also gave a clearance ([2]; SD, i.v. C118P 50 mg/kg) of 22.3 mL/min/kg, a concentration at 30 s ([2]; SD, i.v. C118P 5 mg/kg) of 75.6 µg/mL and a concentration at 30 s ([2]; SD, i.v. C118P 20 mg/kg) of 219 µg/mL. For the same molecule, the concentration at 30 s ([2]; SD, i.v. C118P 50 mg/kg) was 373 µg/mL, the AUC(0-inf) [2, 6] was 10400 ng·h/mL and the half-life [2, 6] was 12.6 ± 3 min. For the same molecule, the concentration at 30 s [2, 6] was 134 µg/mL, the V ([2]; i.v. C118P 5 mg/kg) was 0.3025 ± 0.0611 L/kg and the V ([2]; i.v. C118P 10 mg/kg) was 0.2994 ± 0.0676 L/kg. The V ([2]; i.v. C118P 20 mg/kg) was 0.5826 ± 0.1142 L/kg, the V ([2]; i.v. C118P 50 mg/kg) was 1.5022 ± 1.0658 L/kg and the fraction unbound at 1 h, 400 ng/mL ([3]; C118P 400 ng/mL) was 0.019 ± 0.001. For the same molecule, the fraction unbound at 1 h, 4000 ng/mL ([3]; C118P 4000 ng/mL) was 0.021 ± 0.001, the fraction unbound at 1 h, 40000 ng/mL ([3]; C118P 40,000 ng/mL) was 0.027 ± 0.002 and the fraction unbound at 1 h, 400000 ng/mL ([3]; C118P 400,000 ng/mL) was 0.086 ± 0.003. For the same molecule, the fraction unbound at 1 h, 400 ng/mL ([4]; C118P 400 ng/mL) was 0.022 ± 0.001, the fraction unbound at 1 h, 4000 ng/mL ([4]; C118P 4000 ng/mL) was 0.027 and the fraction unbound at 1 h, 40000 ng/mL ([4]; C118P 40,000 ng/mL) was 0.022 ± 0.001. The fraction unbound at 1 h, 400000 ng/mL ([4]; C118P 400,000 ng/mL) was 0.057 ± 0.004 and the “stability in liver microsomes” value [5] was “quite stable”.
